Experimental data from PubChem BioAssay (NCI).
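1) Cells in 96-well plates. 2) Compound, 48 h, 5 concentrations. 3) Linear interpolation between surrounding doses. 4) Unreached endpoint = highest concentration. Abbreviation: GI50, concentration required for 50% inhibition of growth. TGI: total growth inhibition.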

Tests used:
Assay in all cases: NCI tumour cell line growth inhibition, 48 h
SK-MEL-28 melanoma = tested on: SK-MEL-28 melanoma
SN12C renal = tested on: SN12C renal
OVCAR-8 ovarian = tested on: OVCAR-8 ovarian
MALME-3M melanoma = tested on: MALME-3M melanoma
MOLT-4 leukemia = tested on: MOLT-4 leukemia
U251 CNS = tested on: U251 CNS
M14 melanoma = tested on: M14 melanoma
UACC-62 melanoma = tested on: UACC-62 melanoma
CAKI-1 renal = tested on: CAKI-1 renal
HCT-15 colon = tested on: HCT-15 colon

| SMILES | TGI (SK-MEL-28 melanoma) [µM] | TGI (SN12C renal) [µM] | TGI (OVCAR-8 ovarian) [µM] | TGI (MALME-3M melanoma) [µM] | TGI (MOLT-4 leukemia) [µM] | TGI (U251 CNS) [µM] | TGI (M14 melanoma) [µM] | TGI (UACC-62 melanoma) [µM] | TGI (CAKI-1 renal) [µM] | TGI (HCT-15 colon) [µM] | GI50 (SK-MEL-28 melanoma) [µM] | GI50 (SN12C renal) [µM] | GI50 (OVCAR-8 ovarian) [µM] | GI50 (MALME-3M melanoma) [µM] | GI50 (MOLT-4 leukemia) [µM] | GI50 (U251 CNS) [µM] | GI50 (UACC-62 melanoma) [µM] | GI50 (CAKI-1 renal) [µM] | GI50 (HCT-15 colon) [µM] |
| --- | --- | --- | --- | --- | --- | --- | --- | --- | --- | --- | --- | --- | --- | --- | --- | --- | --- | --- | --- |
| O=C1C[C@H](c2ccccc2)C2(C(=O)c3ccccc3C2=O)[C@@H](c2ccccc2)C1 | > 100 | > 100 | > 100 | > 100 | > 100 | > 100 | 95.9 | 26.7 | > 100 | > 100 |  |  |  |  |  |  |  |  |  |
| Oc1c(I)cc(I)cc1CNCCCN(Cc1ccccn1)Cc1ccccn1 | 3.16 | 2.12 | 3.27 | 1.73 | 2.92 | 2.68 |  | 1.74 | 1.74 | 2.79 | 1.22 | 0.99 | 1.25 | 0.873 | 1.18 | 1.11 | 0.907 | 0.896 | 1.13 |
| COc1ccc(C2C(C(=O)O)=C(COC(C)=O)Oc3cc4c(cc32)OCO4)cc1 (stereo not drawn) | > 100 | > 100 | > 100 | > 100 | > 100 | > 100 | > 100 | > 100 | > 100 | > 100 |  |  |  |  |  |  |  |  |  |
